Experimental data: ChEMBL document CHEMBL1201862, “PubChem BioAssay data set” (2004)
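Where inhibition never reached the appropriate level, the endpoint shown equals the highest concentration tested. Otherwise, values were interpolated linearly from a five-concentration, 48-hour dose response in 96-well plates. At the GI50, growth is halved.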 Activity calls are given as the source filed them. No stated cut-off is given here; in the data, active = GI50 up to about 1.1 µM and inactive = higher.

What was measured:
Assay in all cases: DTP human tumour cell line panel, 48 h
SF-539 = tested on: SF-539
A549 = tested on: A549
SF-295 = tested on: SF-295
NCI-H522 = tested on: NCI-H522
SN12C = tested on: SN12C
BT-549 = tested on: BT-549
786-0 = tested on: 786-0
SNB-19 = tested on: SNB-19
OVCAR-8 = tested on: OVCAR-8
HL-60 = tested on: HL-60
IGROV-1 = tested on: IGROV-1
U-251 = tested on: U-251
ACHN = tested on: ACHN
HCC 2998 = tested on: HCC 2998
SNB-75 = tested on: SNB-75
HCT-15 = tested on: HCT-15
HOP-92 = tested on: HOP-92
SK-MEL-5 = tested on: SK-MEL-5
A498 = tested on: A498

Row | SMILES | GI50 (SF-539) | GI50 (A549) | GI50 (SF-295) | GI50 (NCI-H522) | GI50 (SN12C) | GI50 (BT-549) | GI50 (786-0) | GI50 (SNB-19) | GI50 (OVCAR-8) | GI50 (HL-60) | GI50 (IGROV-1) | GI50 (U-251) | GI50 (ACHN) | GI50 (HCC 2998) | GI50 (SNB-75) | GI50 (HCT-15) | GI50 (HOP-92) | GI50 (SK-MEL-5) | GI50 (A498)
1 | O=C(CNc1nccs1)Nn1cnc2ccc(S(=O)(=O)Nc3nccs3)cc2c1=O | > 100 µM (inactive) | > 100 µM (inactive) | > 100 µM (inactive) | > 100 µM (inactive) | > 100 µM (inactive) | > 100 µM (inactive) | > 100 µM (inactive) | > 100 µM (inactive) | > 100 µM (inactive) | > 100 µM (inactive) | > 100 µM (inactive) | > 100 µM (inactive) | > 100 µM (inactive) | > 100 µM (inactive) | > 100 µM (inactive) | > 100 µM | > 100 µM (inactive) |  | 
2 | CC(=O)C1C(=O)C(=O)N(c2cccc(C)c2C)C1=O (stereo not given) | > 100 µM (inactive) | > 100 µM (inactive) | > 100 µM (inactive) |  | > 100 µM (inactive) | > 100 µM (inactive) | > 100 µM (inactive) | > 100 µM (inactive) | > 100 µM (inactive) | > 100 µM (inactive) | > 100 µM (inactive) |  | > 100 µM (inactive) |  | > 100 µM (inactive) |  | > 100 µM (inactive) | > 100 µM (inactive) | 
3 | Cc1c(C(=O)O)c2cc3ccccc3cc2c(=O)n1C | > 10 µM (inactive) | > 10 µM (inactive) | > 10 µM (inactive) | > 10 µM (inactive) | > 10 µM (inactive) | > 10 µM (inactive) | > 10 µM (inactive) | > 10 µM (inactive) | > 10 µM (inactive) | > 10 µM (inactive) | > 10 µM (inactive) | > 10 µM (inactive) | > 10 µM (inactive) | > 10 µM (inactive) | > 10 µM (inactive) | > 10 µM | > 10 µM (inactive) |  | 
4 | CC1CCOc2ccc(cc2)/C=N\c2ccc(cc2)-c2ccc(cc2)/N=C\c2ccc(cc2)OCC1 | > 100 µM (inactive) | > 100 µM (inactive) | > 100 µM (inactive) | > 100 µM (inactive) | > 100 µM (inactive) | > 100 µM (inactive) | > 100 µM (inactive) |  | > 100 µM (inactive) | > 100 µM (inactive) | > 100 µM (inactive) | > 100 µM (inactive) | > 100 µM (inactive) | > 100 µM (inactive) |  | > 100 µM | > 100 µM (inactive) | > 100 µM (inactive) | 
5 | COC(=O)c1c[nH]c(=O)[nH]c1=O [ISOOROTIC ACID METHYL ESTER] | > 100 µM (inactive) | > 100 µM (inactive) | > 100 µM (inactive) | > 100 µM (inactive) | > 100 µM (inactive) |  | > 100 µM (inactive) | > 100 µM (inactive) | > 100 µM (inactive) |  | > 100 µM (inactive) |  | > 100 µM (inactive) | > 100 µM (inactive) | > 100 µM (inactive) | > 100 µM | 30.5 µM (inactive) | > 100 µM (inactive) | 
6 | COc1cccc(/C=N/n2c(C)n[nH]c2=O)c1 | > 100 µM (inactive) | > 100 µM (inactive) | > 100 µM (inactive) |  | > 100 µM (inactive) | 92.9 µM (inactive) | > 100 µM (inactive) | > 100 µM (inactive) | > 100 µM (inactive) |  |  | > 100 µM (inactive) | > 100 µM (inactive) | > 100 µM (inactive) | 58.7 µM (inactive) | > 100 µM |  |  | 25.5 µM (inactive)
7 | O=C(CC(C(=O)c1ccco1)c1ccco1)c1ccco1 (stereo not given) | > 100 µM (inactive) | > 100 µM (inactive) | > 100 µM (inactive) | > 100 µM (inactive) | > 100 µM (inactive) |  | > 100 µM (inactive) |  | > 100 µM (inactive) | > 100 µM (inactive) | > 100 µM (inactive) | > 100 µM (inactive) | > 100 µM (inactive) | > 100 µM (inactive) | > 100 µM (inactive) |  | > 100 µM (inactive) | > 100 µM (inactive) | > 100 µM (inactive)
8 | C[n+]1cc(C(O)c2ccc3c(c2)OCO3)c2ccccc2c1 (stereo not given) | 30.2 µM (inactive) | 33.3 µM (inactive) | 28.6 µM (inactive) | 16 µM (inactive) | 40.6 µM (inactive) |  | 36.5 µM (inactive) | 44.3 µM (inactive) | 33.3 µM (inactive) |  | 47.4 µM (inactive) | 27 µM (inactive) | 29.1 µM (inactive) | 37.8 µM (inactive) | 41.1 µM (inactive) | 33.5 µM |  | 17.9 µM (inactive) | 29.9 µM (inactive)
9 | CC(=O)O/N=C1\C=Cc2c(no[n+]2[O-])C1=O | 17.3 µM (inactive) | 16.1 µM (inactive) | > 100 µM (inactive) | 17 µM (inactive) | 18.5 µM (inactive) |  | 19.3 µM (inactive) | > 100 µM (inactive) | 12.3 µM (inactive) |  | 16.4 µM (inactive) |  | 17.1 µM (inactive) | 22.1 µM (inactive) | 19.8 µM (inactive) | 19.8 µM |  | 17.5 µM (inactive) | 16.4 µM (inactive)
